Experimental data as given in patent publication US9226924B2, “Methods of treating or preventing neuropathic pain” (Toray Industries, Inc., priority 2010, dated 2016).

What was measured:
[1] = tested on: male ddY mice; experiment: mouse wheel running test (motor inhibitory effect)
Method: 8 male ddY mice of 5 weeks old were used as one experimental group for evaluation. The test compound, grouping of mice, vehicle used and administration method were the same as in Example 1.
Mice were placed in a running wheel apparatus (NATSUME SEISAKUSHO) 0.5 hour after administration of the test compound, and the number of revolutions of the running wheel was counted for a period of 1 hour immediately thereafter to evaluate a motor inhibitory effect.
In the same manner as in Example 2, motor inhibitory effects of oral administration of 30 and 100 mg/kg pregabalin were evaluated.
(§1) The symbol * in the figure indicates a significant difference (*p<0.025) from the group treated with vehicle.

[2] = tested on: mouse models of neuropathic pain (Seltzer's method, sciatic nerve ligation); experiment: von Frey test in mouse Seltzer model of neuropathic pain; assay type: in vivo; settings: oral
Method: 7 to 8 male ICR mice of 5 weeks old were used as one experimental group for evaluation. Mouse models of neuropathic pain were prepared according to Seltzer's method (Seltzer et al., Pain, 1990, vol. 43, p. 205; Malmberg et al., Pain, 1998, vol. 76, p. 215). That is, the sciatic nerve at the femoral region of the right hindlimb of each mouse was exposed under anesthesia, and the sciatic nerve was triply ligated tightly with silk suture of 8-0 (NATSUME SEISAKUSHO) under microscope so that only half thickness of the nerve was trapped in the ligature.
Seven days after the above-described sciatic nerve ligation, using 0.5% methylcellulose as a vehicle, mice of each group received administration of vehicle, administration of a suspension of pregabalin (3 mg/kg) alone, administration of a suspension of Compound 3 (0.3 mg/kg) alone, or administration (combined administration) of a mixed suspension of pregabalin and Compound 3 (3 mg/kg and 0.3 mg/kg, respectively).
Evaluation of neuropathic pain (hereinafter “von Frey test”) was carried out as follows. Mouse models of neuropathic pain were conditioned for at least 1 hour in an acryl cage for measurement (NATSUME SEISAKUSHO) placed on a wire net. Thereafter, using a filament (North Coast Medical. Inc.) which exerted a pressure of 0.16 g, the mice were subjected to mechanical tactile stimulus by applying the filament to the plantar surface of both hindpaws 3 times, each for 3 seconds, with an interval of 3 seconds.
Seven days after sciatic nerve ligation, a von Frey test was carried out before administration of the test compound, 1 hour after administration, 2 hours after administration, and 3 hours after administration. Change in the total scores from before to after administration of the test compound (hereinafter “ΔvF test score”) was calculated by subtracting the total score obtained at each time point after administration of the test compound from the total score obtained before administration of the test compound, which was used as an indicator of analgesic effect.
That is, individual ΔvF test scores of the mice in the group treated with pregabalin alone and the mice in the group treated with Compound 3 alone were sorted in ascending order, respectively, and ΔvF test scores of the two groups at the same rank were added, thereby obtaining a theoretical total value.
The symbol # in the figures indicates a significant difference (###p<0.001) from the group treated with vehicle. […] The symbol * in the figures indicates a significant difference (*p<0.05, **p<0.01) from the theoretical total value.
In the same manner as in Example 1, effects of oral administration of 1, 3, 10 and 30 mg/kg pregabalin alone were evaluated 1 hour after administration in mouse models of neuropathic pain.
as §1

Compound | motor inhibitory effect (number of revolutions of running wheel) ([1]; 0.3 mg/kg Compound 3 alone, oral, 0.5 to 1.5 hours after administration) | analgesic effect (ΔvF test score) ([2]; 0.3 mg/kg Compound 3 alone, 1 hour, 2 hours and 3 hours after administration, male ICR mice) | motor inhibitory effect (number of revolutions of running wheel) ([1]; 3 mg/kg pregabalin alone, oral, 0.5 to 1.5 hours after administration) | motor inhibitory effect (number of revolutions of running wheel) ([1]; 30 mg/kg pregabalin alone, oral (Comparative Example 2), *p<0.025 vs vehicle) | motor inhibitory effect (number of revolutions of running wheel) ([1]; 100 mg/kg pregabalin alone, oral (Comparative Example 2), *p<0.025 vs vehicle) | analgesic effect (ΔvF test score) ([2]; 1 mg/kg pregabalin alone, 1 hour after administration (Comparative Example 1)) | analgesic effect (ΔvF test score) ([2]; 3 mg/kg pregabalin alone, 1 hour after administration (Comparative Example 1)) | analgesic effect (ΔvF test score) ([2]; 3 mg/kg pregabalin alone, 1 hour, 2 hours and 3 hours after administration, male ICR mice) | analgesic effect (ΔvF test score) ([2]; 10 mg/kg pregabalin alone, 1 hour after administration (Comparative Example 1), *p<0.025 vs vehicle) | analgesic effect relative to combined administration of 3 mg/kg pregabalin and 0.3 mg/kg Compound 3 ([2]; 30 mg/kg pregabalin alone, 1 hour after administration) | analgesic effect (ΔvF test score) ([2]; 30 mg/kg pregabalin alone, 1 hour after administration (Comparative Example 1), *p<0.025 vs vehicle)
COc1ccc(-n2nc(C3(O)CCC(O)CC3)cc2-c2ccc(C)cc2)cc1 (stereo not drawn) [Compound 3, 1-(1-(4-methoxyphenyl)-5-(p-tolyl)-1H-pyrazol-3-yl)cyclohex-an-cis-1,4-diol] | No statistically-significant motor inhibitory effect was found | an analgesic effect was not observed |  |  |  |  |  |  |  |  | 
CC(C)C[C@H](CN)CC(=O)O [Pregabalin, S-(+)-4-amino-3-(2-methylpropyl) butanoic acid] |  |  | No statistically-significant motor inhibitory effect was found | statistically significantly reduced the number of revolutions | statistically significantly reduced the number of revolutions | No analgesic effect was observed | No analgesic effect was observed | an analgesic effect was not observed | a statistically-significant analgesic effect was observed | about the same level | a statistically-significant analgesic effect was observed
